Assay results: US20240384268A1, “Oligonucleotides” (Hudson Institute of Medical Research, priority 2021, published 2024)
In the oligonucleotide strings, read from the 5' end, every base follows the letter of its sugar. An asterisk marks phosphorothioate; unmarked linkages are phosphodiester. Other units and linkages are bracketed, terminal groups are in braces. A string of capitals states the bases alone. d = 2'-deoxy (DNA); m = 2'-O-methyl

Biological target: cGAS (Homo sapiens, UniProt Q8N884)
Sequence (Q8N884 whole entry): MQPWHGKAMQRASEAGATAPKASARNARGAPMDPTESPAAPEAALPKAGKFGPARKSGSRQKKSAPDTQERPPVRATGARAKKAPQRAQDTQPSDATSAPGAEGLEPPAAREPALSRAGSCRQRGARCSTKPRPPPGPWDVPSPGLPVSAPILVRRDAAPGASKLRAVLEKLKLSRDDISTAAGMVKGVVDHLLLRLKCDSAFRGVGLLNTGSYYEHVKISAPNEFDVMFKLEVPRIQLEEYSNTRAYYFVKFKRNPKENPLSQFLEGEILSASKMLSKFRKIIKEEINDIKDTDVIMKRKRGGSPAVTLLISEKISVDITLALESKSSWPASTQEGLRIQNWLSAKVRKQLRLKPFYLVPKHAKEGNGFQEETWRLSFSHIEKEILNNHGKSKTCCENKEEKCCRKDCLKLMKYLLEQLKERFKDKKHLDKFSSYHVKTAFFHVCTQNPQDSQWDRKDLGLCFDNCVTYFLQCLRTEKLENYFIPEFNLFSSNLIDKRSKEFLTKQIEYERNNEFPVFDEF
Experiment: ISD70-driven IP-10 (and IFN-β) production in THP-1 cells, ELISA
Format: cell-based
Design: endogenous in cells; host or cells: THP-1 (undifferentiated)
Conditions: for cGAS-100 nM: averaged IP-10 levels relative to ISD70 / inhibition of ISD70-driven IP-10 production (in words): THP-1; for cGAS-100 nM: averaged IP-10 levels relative to ISD70: 100 nM ASO overnight, then ISD70 2.5 μg/ml 7-8 h, percentage of ISD70 only; for cGAS 100 nM: MOE-modified ASO at 100 nM, averaged IP-10 levels relative to ISD70 condition; for inhibition of ISD70-driven IP-10 production (in words): 2′OMe or PS oligos, 100-250 nM, pre-treatment as in figure legends, ISD70 2.5 μg/ml

Substance	cGAS-100 nM: averaged IP-10 levels relative to ISD70 [%]	cGAS 100 nM	inhibition of ISD70-driven IP-10 production (in words)
mU*mA*mA*mA*mA*T*A*A*G*G*G*G*A*A*T*mA*mG*mG*mG*mG (mU*mA*mA*mA*mA*dT*dA*dA*dG*dG*dG*dG*dA*dA*dT*mA*mG*mG*mG*mG) [[CDKN2B-AS1]80]	110.58		
GCCCATCCATGAGGTCCTGG (antisense; 2'-MOE modified, pattern not given here) [CTNN2B-2545 MOE]		0.592	
mG*mG*mA*mU*mU*A*A*A*A*C*A*G*A*T*T*mA*mA*mU*mA*mC (GGAUUAAAACAGATTAAUAC; sugars from the 5' end m5 d10 m5, all phosphorothioate, methylation of C not given here) [[CDKN2B-AS1]1774]	50.11		
mA*mA*mA*mA*mG*A*T*T*A*T*C*T*T*C*T*mU*mU*mU*mA*mA (AAAAGATTATCTTCTUUUAA; sugars from the 5' end m5 d10 m5, all phosphorothioate, methylation of C not given here) [[CDKN2B-AS1]2133]	57.68		
mG*mA*mU*mU*mA*A*A*A*C*A*G*A*T*T*A*mA*mU*mA*mC*mA (mG*mA*mU*mU*mA*dA*dA*dA*dC*dA*dG*dA*dT*dT*dA*mA*mU*mA*mC*mA) [[CDKN2B-AS1]1773]	89.36		
mA*mA*mU*mU*mU*A*A*A*G*C*A*T*G*A*A*mU*mA*mU*mU*mA (mA*mA*mU*mU*mU*dA*dA*dA*dG*dC*dA*dT*dG*dA*dA*mU*mA*mU*mU*mA) [[CDKN2B-AS1]645]	67.63		
mC*mU*mC*mU*mC*T*G*G*T*C*C*C*A*T*C*mC*mC*mU*mU*mC (mC*mU*mC*mU*mC*dT*dG*dG*dT*dC*dC*dC*dA*dT*dC*mC*mC*mU*mU*mC; antisense) [[LINC-PINT]109]	80.22		
mA*mG*mG*mA*mU*T*A*A*A*A*C*A*G*A*T*mU*mA*mA*mU*mA (mA*mG*mG*mA*mU*dT*dA*dA*dA*dA*dC*dA*dG*dA*dT*mU*mA*mA*mU*mA) [[CDKN2B-AS1] 1775]	88.54		
mU*mC*mU*mC*mU*G*G*T*C*C*C*A*T*C*C*mC*mU*mU*mC*mU (UCUCUGGTCCCATCCCUUCU; antisense; sugars from the 5' end m5 d10 m5, all phosphorothioate, methylation of C not given here) [[LINC-PINT]108]	104.65		
mU*mG*mA*mC*mA*T*T*T*C*G*T*G*G*C*T*mC*mC*mU*mA*mC (mU*mG*mA*mC*mA*dT*dT*dT*dC*dG*dT*dG*dG*dC*dT*mC*mC*mU*mA*mC; antisense) [[LINC-PINT]523 KL]	39.34		
mU*mU*mG*mU*mG*A*A*A*A*G*A*T*T*A*T*mC*mU*mU*mC*mU (mU*mU*mG*mU*mG*dA*dA*dA*dA*dG*dA*dT*dT*dA*dT*mC*mU*mU*mC*mU) [[CDKN2B-AS1]2138]	69.36		
mA*mA*mG*mA*mU*T*A*T*C*T*T*C*T*T*T*mU*mA*mA*mU*mU (mA*mA*mG*mA*mU*dT*dA*dT*dC*dT*dT*dC*dT*dT*dT*mU*mA*mA*mU*mU) [[CDKN2B-AS1]2131]	73.50		
mG*mU*mC*mC*mC*A*T*C*C*C*T*T*C*T*G*mC*mU*mG*mC*mC (GUCCCATCCCTTCTGCUGCC; antisense; sugars from the 5' end m5 d10 m5, all phosphorothioate, methylation of C not given here) [[LINC-PINT]102]	113.87		
TCCGGCCTCGGAAGCTCTCT (antisense; 2'-MOE modified, pattern not given here) [MB21D1-168 MOE]		0.250	
mA*mU*mG*mA*mC*A*T*T*T*C*G*T*G*G*C*mU*mC*mC*mU*mA (mA*mU*mG*mA*mC*dA*dT*dT*dT*dC*dG*dT*dG*dG*dC*mU*mC*mC*mU*mA) [[LINC-PINT]524.1]	99.38		
mC*mA*mC*mC*mC*T*T*C*T*C*T*C*T*G*G*mU*mC*mC*mC*mA (CACCCTTCTCTCTGGUCCCA; antisense; sugars from the 5' end m5 d10 m5, all phosphorothioate, methylation of C not given here) [[LINC-PINT]116]	97.19		
mU*mC*mC*mC*mA*T*C*C*C*T*T*C*T*G*C*mU*mG*mA*mC*mA (UCCCATCCCTTCTGCUGACA; sugars from the 5' end m5 d10 m5, all phosphorothioate, methylation of C not given here) [[LINC-PINT]101]	86.62		
mA*mC*mC*mC*mU*T*C*T*C*T*C*T*G*G*T*mC*mC*mC*mA*mU (mA*mC*mC*mC*mU*dT*dC*dT*dC*dT*dC*dT*dG*dG*dT*mC*mC*mC*mA*mU; antisense) [[LINC-PINT]115]	89.81		

Substance	cGAS-100 nM: averaged IP-10 levels relative to ISD70 [%]	cGAS 100 nM	inhibition of ISD70-driven IP-10 production (in words)
mU*mG*mA*mU*mG*A*T*G*C*T*T*G*C*A*G*mG*mA*mG*mG*mC (mU*mG*mA*mU*mG*dA*dT*dG*dC*dT*dT*dG*dC*dA*dG*mG*mA*mG*mG*mC) [[LINC-PINT|283.1]	85.85		
mG*mA*mA*mA*mA*G*A*T*T*A*T*C*T*T*C*mU*mU*mU*mU*mA (GAAAAGATTATCTTCUUUUA; sugars from the 5' end m5 d10 m5, all phosphorothioate, methylation of C not given here) [[CDKN2B-AS1]2134]	51.49		
mG*mG*mU*mC*mC*C*A*T*C*C*C*T*T*C*T*mG*mC*mU*mG*mC (GGUCCCATCCCTTCTGCUGC; sugars from the 5' end m5 d10 m5, all phosphorothioate, methylation of C not given here) [[LINC-PINT]103]	45.23		significantly inhibiting ISD70-driven IP-10 production
GGTTTTGGCTGGGATCAAGT (antisense; 2'-MOE modified, pattern not given here) [CAMSAP1-4697 MOE]		0.375	
mA*mA*mG*mG*mU*G*G*C*C*A*C*A*G*G*C*mA*mA*mC*mG*mU (mA*mA*mG*mG*mU*dG*dG*dC*dC*dA*dC*dA*dG*dG*dC*mA*mA*mC*mG*mU; antisense) [[CDKN2B-AS1]2198]	60.48		
mA*mG*mC*mC*mG*A*A*C*A*G*A*A*G*G*A*mG*mC*mG*mU*mC (AGCCGAACAGAAGGAGCGUC; sugars from the 5' end m5 d10 m5, all phosphorothioate, methylation of C not given here) [[LINC-PINT]587 KL]	39.92		
mA*mG*mA*mU*mU*A*T*C*T*T*C*T*T*T*T*mA*mA*mU*mU*mU (AGAUUATCTTCTTTTAAUUU; sugars from the 5' end m5 d10 m5, all phosphorothioate, methylation of C not given here) [[CDKN2B-AS1]2130]	55.80		
mA*mU*mA*mU*mC*T*G*C*T*G*C*C*C*A*C*mC*mU*mU*mC*mU (AUAUCTGCTGCCCACCUUCU; antisense; sugars from the 5' end m5 d10 m5, all phosphorothioate, methylation of C not given here) [[CDKN2B-AS1]831]	108.01		
TGGCAGGCTCAGTGATGTCT (antisense; 2'-MOE modified, pattern not given here) [CTNN2B-1642 MOE]		0.605	
mG*mC*mA*mA*mG*G*C*A*G*A*G*A*A*A*C*mU*mC*mC*mA*mG (GCAAGGCAGAGAAACUCCAG; sugars from the 5' end m5 d10 m5, all phosphorothioate, methylation of C not given here) [[LINC-PINT]1315 KL]	30.64		
mC*mC*mA*mU*mC*C*C*T*T*C*T*G*C*T*G*mC*mC*mA*mA*mG (mC*mC*mA*mU*mC*dC*dC*dT*dT*dC*dT*dG*dC*dT*dG*mC*mC*mA*mA*mG; antisense) [ILING-PINT199]	85.43		
mU*mU*mU*mG*mA*A*A*T*T*C*A*G*A*A*G*mA*mU*mU*mU*mG (mU*mU*mU*mG*mA*dA*dA*dT*dT*dC*dA*dG*dA*dA*dG*mA*mU*mU*mU*mG) [[LINC PINT|2690]	84.15		
mG*mA*mU*mG*mG*T*T*C*C*A*G*T*C*C*C*mU*mC*mU*mU*mC (GAUGGTTCCAGTCCCUCUUC; antisense; sugars from the 5' end m5 d10 m5, all phosphorothioate, methylation of C not given here) [[LINC-PINT]1497.1]	26.05		significant effect
mU*mC*mU*mG*mG*T*C*C*C*A*T*C*C*C*T*mU*mC*mU*mG*mC (UCUGGTCCCATCCCTUCUGC; antisense; sugars from the 5' end m5 d10 m5, all phosphorothioate, methylation of C not given here) [[LINC-PINT]106]	48.75		
mU*mG*mU*mU*mU*C*C*C*C*G*G*A*G*A*G*mC*mA*mA*mU*mG (UGUUUCCCCGGAGAGCAAUG; antisense; sugars from the 5' end m5 d10 m5, all phosphorothioate, methylation of C not given here) [[LINC-PINT]501 KL]	57.81		
mU*mU*mA*mA*mA*T*A*A*T*C*T*A*G*T*T*mU*mG*mA*mA*mG (UUAAATAATCTAGTTUGAAG; sugars from the 5' end m5 d10 m5, all phosphorothioate, methylation of C not given here) [[CDKN2B-AS1]132]	52.20		
GCTGACAAAGATTCACTGGT (antisense; 2'-MOE modified, pattern not given here) [HPRT-1353 MOE]		0.335	
mU*mG*mA*mC*mA*A*A*A*C*A*A*T*A*A*T*mA*mA*mC*mA*mG (mU*mG*mA*mC*mA*dA*dA*dA*dC*dA*dA*dT*dA*dA*dT*mA*mA*mC*mA*mG) [[LINC-PINT]384]	88.79		
